Data reported in patent US11739074B2, “Ras inhibitors” (Revolution Medicines, Inc., priority 2019, dated 2023).
Where two headings read alike, the source gives them in different places.

What was measured:
Assay type in all cases: cell-based
AsPC-1 (K-Ras G12D) [1] = assay: CellTiter-Glo cell viability assay, AsPC-1; conditions: Homo sapiens, ASPC1, 120 h
Procedure, shortened: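 Compounds dispensed directly onto seeded AsPC-1 (K-Ras G12D) or NCI-H358 (K-Ras G12C) cells; CellTiter-Glo luminescence read on day 5 after ~30 min equilibration to room temperature. Signal normalized to DMSO average (%) and fit by four-parameter logistic.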

NCI-H358 (K-Ras G12C) = assay: CellTiter-Glo cell viability assay, H358; conditions: Homo sapiens, NCI-H358, 120 h
Experimental: Determination of Cell Viability in RAS Mutant Cancer Cell Lines
Protocol: CellTiter-Glo® Cell Viability Assay
Note—The following protocol describes a procedure for monitoring cell viability of K-Ras mutant cancer cell lines in response to a compound of the invention. Other RAS isoforms may be employed, though the number of cells to be seeded will vary based on cell line used.
Test compounds (132.5 nL) were directly dispensed into the assay plates containing cells. […] On day 5, assay plates and their contents were equilibrated to room temperature for approximately 30 minutes. […] Luminescence was measured using the PerkinElmer Enspire. Data were normalized by the following: (Sample signal/Avg. DMSO)*100. The data were fit using a four-parameter logistic fit.

AsPC-1 (K-Ras G12D) [2] = assay: Potency assay: pERK in AsPC-1 cells; conditions: Homo sapiens
[3] = read-out: AsPC-1 Cell Viability IC50, AsPC-1, K-Ras G12D, 5-day treatment
[4] = read-out: H358 Cell Viability IC50, NCI-H358, K-Ras G12C, 5-day treatment
[5] = ASPC1, read-out: pERK EC50 (AsPC-1 KRAS G12D)
[6] = AsPC-1, K-Ras G12D, 5-day treatment, read-out: AsPC-1 Cell Viability IC50
[7] = NCI-H358, K-Ras G12C, 5-day treatment, read-out: H358 Cell Viability IC50
[8] = ASPC1, AsPC-1 cells, K-Ras G12D, read-out: pERK EC50 (AsPC-1 KRAS G12D)

Row | Structure (SMILES) | IC50 (AsPC-1 (K-Ras G12D) [1]; [3]) | IC50 (NCI-H358 (K-Ras G12C); [4]) | EC50 (AsPC-1 (K-Ras G12D) [2]; [5]) | IC50 (AsPC-1 (K-Ras G12D) [1]; [6]) | IC50 (NCI-H358 (K-Ras G12C); [7]) | EC50 (AsPC-1 (K-Ras G12D) [2]; [8])
1 | CCn1c(-c2cnccc2COC)c2c3cc(ccc31)-c1cc(O)cc(c1)C[C@H](NC(=O)[C@H](C(C)C)N(C)C(=O)CN(C)C(=O)[C@@H]1N[C@H]1c1ccccc1)C(=O)N1CCC[C@H](N1)C(=O)OCC(C)(C)C2 [Compound 11] | 1000 to 10000 nM | 100 to 1000 nM | < 5 µM | – | – | –
2 | CCn1c(-c2cnccc2COC)c2c3cc(ccc31)-c1cc(O)cc(c1)C[C@H](NC(=O)[C@H](C(C)C)N(C)C(=O)CN(C)C(=O)[C@H]1N[C@@H]1c1ccccc1)C(=O)N1CCC[C@H](N1)C(=O)OCC(C)(C)C2 [Compound 12] | 100 to 1000 nM | 100 to 1000 nM | < 5 µM | – | – | –
3 | CCn1c(-c2cccnc2[C@H](C)OC)c2c3cc(ccc31)-c1cc(O)cc(c1)C[C@H](NC(=O)[C@H](C(C)C)N(C)C(=O)CN(C)C(=O)[C@H]1CN1)C(=O)N1CCC[C@H](N1)C(=O)OCC(C)(C)C2 [Compound 42A] | 100 to 1000 nM | < 10 nM | < 5 µM | – | – | –
4 | CCn1c(-c2cccnc2[C@H](C)OC)c2c3cc(ccc31)-c1cc(O)cc(c1)C[C@H](NC(=O)[C@H](C(C)C)N1CCC3(CCN(C(=O)[C@H]4CN4)C3)C1=O)C(=O)N1CCC[C@H](N1)C(=O)OCC(C)(C)C2 (stereo partly drawn) [Compound 59] | – | – | – | 100 to 1000 nM | < 10 nM | < 5 µM
5 | CCn1c(-c2cccnc2[C@H](C)OC)c2c3cc(ccc31)-c1cccc(c1)C[C@H](NC(=O)[C@H](C(C)C)N(C)C(=O)[C@H]1C[C@H](N=C=NCc3ccccc3OC)C1)C(=O)N1CCC[C@H](N1)C(=O)OCC(C)(C)C2 [Compound 77] | – | – | – | 100 to 1000 nM | 100 to 1000 nM | < 5 µM
6 | CCn1c(-c2cccnc2[C@H](C)OC)c2c3cc(ccc31)-c1cc(O)cc(c1)C[C@H](NC(=O)[C@H](C(C)C)N(C)C(=O)c1ncc(NC(=O)[C@@H]3CN3)n1C)C(=O)N1CCC[C@H](N1)C(=O)OCC(C)(C)C2 [Compound 83] | – | – | – | 1000 to 10000 nM | 10 to 100 nM | < 5 µM
7 | CCn1c(-c2cccnc2[C@H](C)OC)c2c3cc(ccc31)-c1cc(O)cc(c1)C[C@H](NC(=O)[C@H](C(C)C)N(C)C(=O)CN(C)C(=O)[C@@H]1N[C@H]1COC)C(=O)N1CCC[C@H](N1)C(=O)OCC(C)(C)C2 [Compound 85] | 1000 to 10000 nM | 10 to 100 nM | < 5 µM | – | – | –
8 | CCn1c(-c2cccnc2[C@H](C)OC)c2c3cc(ccc31)-c1cc(O)cc(c1)C[C@H](NC(=O)[C@H](C(C)C)N(C)C(=O)CN(C)C(=O)C1CN1CCOC)C(=O)N1CCC[C@H](N1)C(=O)OCC(C)(C)C2 (stereo partly drawn) [Compound 90] | 100 to 1000 nM | < 10 nM | < 5 µM | – | – | –
9 | CCn1c(-c2cnccc2COC)c2c3cc(ccc31)-c1cc(O)cc(c1)C[C@H](NC(=O)[C@H](C(C)C)N(C)C(=O)CN(C)C(=O)[C@@H]1N[C@H]1c1ccc(OC)cc1)C(=O)N1CCC[C@H](N1)C(=O)OCC(C)(C)C2 [Compound 96] | 1000 to 10000 nM | 1000 to 10000 nM | < 5 µM | – | – | –
10 | CCn1c(-c2cccnc2[C@H](C)OC)c2c3cc(ccc31)-c1cc(O)cc(c1)C[C@H](NC(=O)[C@H](C(C)C)N(C)C(=O)[C@@H]1CN1)C(=O)N1CCC[C@H](N1)C(=O)OCC(C)(C)C2 [Compound 100] | – | – | – | 100 to 1000 nM | 10 to 100 nM | < 5 µM
11 | CCn1c(-c2cccnc2[C@H](C)OC)c2c3cc(ccc31)-c1cc(O)cc(c1)C[C@H](NC(=O)[C@H](C(C)C)N(C)C(=O)[C@H](C)N(C)C(=O)[C@H]1CN1)C(=O)N1CCC[C@H](N1)C(=O)OCC(C)(C)C2 [Compound 102] | 100 to 1000 nM | 10 to 100 nM | < 5 µM | – | – | –
12 | CCn1c(-c2cnccc2COC)c2c3cc(ccc31)-c1cc(O)cc(c1)C[C@H](NC(=O)[C@H](C(C)C)N(C)C(=O)CN(C)C(=O)[C@@H]1N[C@@H]1C1CC1)C(=O)N1CCC[C@H](N1)C(=O)OCC(C)(C)C2 [Compound 103] | 100 to 1000 nM | 100 to 1000 nM | < 5 µM | – | – | –
13 | CCn1c(-c2cccnc2[C@H](C)OC)c2c3cc(ccc31)-c1cccc(c1)C[C@H](NC(=O)[C@H](C(C)C)N(C)C(=O)CN(C)C(=O)[C@H]1CN1)C(=O)N1CCC[C@H](N1)C(=O)OCC(C)(C)C2 [Compound 107] | 1000 to 10000 nM | 100 to 1000 nM | < 5 µM | – | – | –
14 | CCn1c(-c2cccnc2[C@H](C)OC)c2c3cc(ccc31)-c1csc(n1)C[C@H](NC(=O)[C@H](C1CCCC1)N(C)C(=O)CN(C)C(=O)[C@H]1CN1)C(=O)N1CCC[C@H](N1)C(=O)OCC(C)(C)C2 [Compound 132] | – | – | – | 1000 to 10000 nM | 10 to 100 nM | < 5 µM
